Measured values reported in PMC9687209 (2022).

How the values were obtained:
[1] = system: Random Sequence (DNA, single strand) ATTGGCACTCCACGCATAGGATTCCGGCTAATCGACTGACTGCCGGTACGATGCAGTCAGCCTATGCGTGCTACCGTGAA; test: BLI; conditions: 177.7 mM Na+, 0.492 mM Mg2+; 0.2 g/L KCl, 0.2 g/L KH2PO4, 0.1 g/L CaCl2; selection buffer, pH 7.4, 25 °C; NB [sic]; 6.25 μM tested in Figure 4
[2] = system: C116 (DNA, aptamer) ATTGGCACTCCACGCATAGGGATCTCATAACCAGTCTCTTTGACTGATGTTAGTAAGGTCCCTATGCGTGCTACCGTGAA; test: BLI; conditions: 177.7 mM Na+, 0.492 mM Mg2+; 0.2 g/L KCl, 0.2 g/L KH2PO4, 0.1 g/L CaCl2; selection buffer (NaCl/phosphate), pH 7.4, 25 °C
[3] = system: C53 (DNA, aptamer) ATTGGCACTCCACGCATAGGGTAAAGTACGTATGTCATGCACATGCCGTATTCTCTTTGCCCTATGCGTGCTACCGTGAA; test: BLI; conditions: 177.7 mM Na+, 0.492 mM Mg2+; 0.2 g/L KCl, 0.2 g/L KH2PO4, 0.1 g/L CaCl2; selection buffer (NaCl/phosphate), pH 7.4, 25 °C; NB [sic]; highest concentration not stated
[4] = system: C1-c (DNA, aptamer) CCAACATGATGTTCCGTCATTTTGAGCGTG; test: BLI; conditions: 177.7 mM Na+, 0.492 mM Mg2+; 0.2 g/L KCl, 0.2 g/L KH2PO4, 0.1 g/L CaCl2; selection buffer (NaCl/phosphate), pH 7.4, 25 °C
[5] = system: C87 (DNA, aptamer) ATTGGCACTCCACGCATAGGGGAAGCTGCTCTCATCAATAAAAAATGAGACGGAGGTTACCCTATGCGTGCTACCGTGAA; test: BLI; conditions: 177.7 mM Na+, 0.492 mM Mg2+; 0.2 g/L KCl, 0.2 g/L KH2PO4, 0.1 g/L CaCl2; selection buffer (NaCl/phosphate), pH 7.4, 25 °C
[6] = system: C1-a (DNA, aptamer) CAACATGATGTTCCGTCATTTTG; test: BLI; conditions: 177.7 mM Na+, 0.492 mM Mg2+; 0.2 g/L KCl, 0.2 g/L KH2PO4, 0.1 g/L CaCl2; selection buffer (NaCl/phosphate), pH 7.4, 25 °C
[7] = system: C100/htC4 (DNA, aptamer) ATTGGCACTCCACGCATAGGGAATGGACCCGGTATAATTCCCTCAAGAGTGCCAATTTCACCTATGCGTGCTACCGTGAA; test: BLI; conditions: 177.7 mM Na+, 0.492 mM Mg2+; 0.2 g/L KCl, 0.2 g/L KH2PO4, 0.1 g/L CaCl2; selection buffer (NaCl/phosphate), pH 7.4, 25 °C
[8] = system: C12/htC2 (DNA, aptamer) ATTGGCACTCCACGCATAGGGACATCGAGAAGAATCCTGATACGACTTGGCTTTGCTGGCCCTATGCGTGCTACCGTGAA; test: BLI; conditions: 177.7 mM Na+, 0.492 mM Mg2+; 0.2 g/L KCl, 0.2 g/L KH2PO4, 0.1 g/L CaCl2; selection buffer (NaCl/phosphate), pH 7.4, 25 °C
[9] = system: C1-d (DNA, aptamer) CCGAGGTGTGTACACCGTG; test: BLI response, four-parameter logistic fit; conditions: 177.7 mM Na+, 0.492 mM Mg2+; 0.2 g/L KCl, 0.2 g/L KH2PO4, 0.1 g/L CaCl2; selection buffer, pH 7.4, 25 °C; calibration curve 0.625-30 μM DA; Hill slope 1.351
[10] = system: C58/htC3 (DNA, aptamer) ATTGGCACTCCACGCATAGGCCAAGGTGTCAATCTTGAATAGCTGTGTAACGTCTATGTGCCTATGCGTGCTACCGTGAA; test: BLI; conditions: 177.7 mM Na+, 0.492 mM Mg2+; 0.2 g/L KCl, 0.2 g/L KH2PO4, 0.1 g/L CaCl2; selection buffer (NaCl/phosphate), pH 7.4, 25 °C
[11] = system: htC5 (DNA, aptamer) ATTGGCACTCCACGCATAGGGGAGGGCCGGTTGAACTGTAATGTGTAAACCACGCGCTACCCTATGCGTGCTACCGTGAA; test: BLI; conditions: 177.7 mM Na+, 0.492 mM Mg2+; 0.2 g/L KCl, 0.2 g/L KH2PO4, 0.1 g/L CaCl2; selection buffer (NaCl/phosphate), pH 7.4, 25 °C; NB [sic]; highest concentration not stated
[12] = system: C1-b (DNA, aptamer) GGTGTGTACACC; test: BLI; conditions: 177.7 mM Na+, 0.492 mM Mg2+; 0.2 g/L KCl, 0.2 g/L KH2PO4, 0.1 g/L CaCl2; selection buffer (NaCl/phosphate), pH 7.4, 25 °C
[13] = system: C1-s (DNA, aptamer) CCAACATGATGTTCCGTCATTTTGAGGTGTGTACACCGTG; test: BLI; conditions: 177.7 mM Na+, 0.492 mM Mg2+; 0.2 g/L KCl, 0.2 g/L KH2PO4, 0.1 g/L CaCl2; selection buffer (NaCl/phosphate), pH 7.4, 25 °C
[14] = system: C1-d (DNA, aptamer) CCGAGGTGTGTACACCGTG; test: BLI; conditions: 177.7 mM Na+, 0.492 mM Mg2+, 0.2 g/L KCl, 0.2 g/L KH2PO4, 0.1 g/L CaCl2, pH 7.4, 25 °C
[15] = system: C2 (DNA, aptamer) ATTGGCACTCCACGCATAGGGGATAACGGGTTGATGGTACTTCTATCTATCGCGTTGTGCCCTATGCGTGCTACCGTGAA; test: BLI; conditions: 177.7 mM Na+, 0.492 mM Mg2+; 0.2 g/L KCl, 0.2 g/L KH2PO4, 0.1 g/L CaCl2; selection buffer (NaCl/phosphate), pH 7.4, 25 °C
[16] = system: C1/htC1 (DNA, aptamer) ATTGGCACTCCACGCATAGGCCAACATGATGTTCCGTCATTTTGAGGTGTGTACACCGTGCCTATGCGTGCTACCGTGAA; test: BLI; conditions: 177.7 mM Na+, 0.492 mM Mg2+; 0.2 g/L KCl, 0.2 g/L KH2PO4, 0.1 g/L CaCl2; selection buffer (NaCl/phosphate), pH 7.4, 25 °C
[17] = system: C66 (DNA, aptamer) ATTGGCACTCCACGCATAGGGGTGGTCTTCTGGGTAATCCCCGACTACCCTTATGCCGGCCCTATGCGTGCTACCGTGAA; test: BLI; conditions: 177.7 mM Na+, 0.492 mM Mg2+; 0.2 g/L KCl, 0.2 g/L KH2PO4, 0.1 g/L CaCl2; selection buffer (NaCl/phosphate), pH 7.4, 25 °C

Row | SMILES | binding [1] | KD [2] [µM] | binding [3] | KD [4] [µM] | KD [5] [µM] | KD [6] [µM] | KD [7] [µM] | KD [8] [µM] | EC50 [9] [µM] | KD [10] [µM] | binding [11] | KD [12] [µM] | KD [13] [µM] | KD ([14]; selection buffer (NaCl/phosphate), kon 2.94 × 10^5 1/Ms, kdis 5.13 × 10^-2 1/s) [µM] | KD [15] [µM] | KD [16] [µM] | KD [17] [µM] | binding ([14]; selection buffer, 6.25 μM tested)
1 | C/C(=C/C=C/[C@@H](C)C(=O)O)[C@H]1CN[C@H](C(=O)O)[C@H]1CC(=O)O | no | 11.7 | no | 4.9 ± 0.312 | 5.04 | 6.9 ± 0.628 | 3.25 | 5.21 | 12.57 | 6.33 | no | 0.167 ± 0.00933 | 1.5 ± 0.113 | 0.109 ± 0.00931 | 20.3 | 1.69 | 22.7 | 
2 | C=C1[C@@H](O)[C@@H]2O[C@]3(CC[C@H](/C=C/[C@@H](C)[C@@H]4CC(C)=C[C@@]5(O[C@H](C[C@@](C)(O)C(=O)O)CC[C@H]5O)O4)O3)CC[C@H]2O[C@@H]1[C@@H](O)C[C@H](C)[C@H]1O[C@@]2(CCCCO2)CC[C@H]1C |  |  |  |  |  |  |  |  |  |  |  |  |  |  |  |  |  | no
